# Data published in paper PMC3548977 (Cancer cell, 2013).
# Legend:
# Gli1 mRNA [1] = test: Gli1 mRNA expression in treated SMO^WT MB allografts; assay type: in vivo, mouse; conditions: treated 3 days, harvested 4 h after last dose
# [2] = test system: Ptch^+/−; p53^−/− mouse MB allograft (SMO^WT); assay type: in vivo; conditions: day 9 of treatment; ATO 7.5 mg/kg IP qd, itraconazole 75 mg/kg PO bid
# [3] = test system: Ptch^+/−; p53^−/− MB tumorspheres expressing endogenous SMO^WT; test: MB tumorsphere proliferation; assay type: cell-based; conditions: Mus musculus, 96 h, read-out: IC50 anti-proliferative activity
# P-glycoprotein (PGP) = conditions: ref Wang et al., 2002; cited from earlier work
# [4] = test system: NVP-LDE225 resistant SMO mutants; assay type: cell-based, mouse; conditions: itraconazole 1.5 μM, mutant of Figure 7D
# Gli1 mRNA [5] = test: Gli1 mRNA transcription in MB tumorspheres; assay type: cell-based; conditions: Mus musculus, 24 h, read-out: IC50 for Gli1 mRNA transcription
# SMO^WT = SMO^WT (Mus musculus, UniProt P56726); test: 8×-GLI-luciferase reporter in SHHN stimulated Smo−/− MEFs expressing SMO^WT; assay type: cell-based
# murine SMO^E522K = murine SMO^E522K (Mus musculus, UniProt P56726, E522K); test: 8×-GLI-luciferase reporter in SHHN stimulated Smo−/− MEFs expressing SMO^E522K; conditions: GDC-0449 0.5 μM, itraconazole 1.5 μM
# Chain of murine SMO^E522K (P56726 33-793 E522K): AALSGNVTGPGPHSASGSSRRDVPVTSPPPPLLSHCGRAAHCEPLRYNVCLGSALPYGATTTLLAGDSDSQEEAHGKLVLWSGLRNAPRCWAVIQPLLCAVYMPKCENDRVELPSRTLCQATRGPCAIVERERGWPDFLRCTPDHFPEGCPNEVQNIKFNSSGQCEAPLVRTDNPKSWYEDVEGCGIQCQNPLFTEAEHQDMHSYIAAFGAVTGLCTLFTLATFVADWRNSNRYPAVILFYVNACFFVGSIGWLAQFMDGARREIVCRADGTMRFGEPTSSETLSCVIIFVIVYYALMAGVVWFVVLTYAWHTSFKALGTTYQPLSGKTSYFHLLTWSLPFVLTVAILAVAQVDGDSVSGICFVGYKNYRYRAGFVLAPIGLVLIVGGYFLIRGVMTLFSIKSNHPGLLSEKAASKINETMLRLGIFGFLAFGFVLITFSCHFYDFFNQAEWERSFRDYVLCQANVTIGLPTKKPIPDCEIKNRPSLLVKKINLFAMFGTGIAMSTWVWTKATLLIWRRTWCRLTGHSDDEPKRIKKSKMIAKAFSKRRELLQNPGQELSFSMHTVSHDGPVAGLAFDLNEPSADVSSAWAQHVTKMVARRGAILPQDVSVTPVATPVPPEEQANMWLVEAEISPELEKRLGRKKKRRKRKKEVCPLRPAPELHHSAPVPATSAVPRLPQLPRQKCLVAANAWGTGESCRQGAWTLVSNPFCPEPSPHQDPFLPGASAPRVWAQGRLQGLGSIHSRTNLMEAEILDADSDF
# Chain of SMO^WT (P56726 33-793): as the sequence (P56726 33-793 E522K) above, with K490E counted along it
smiles,measurement,setting,value
CCC(C)n1ncn(-c2ccc(N3CCN(c4ccc(OCC5COC(Cn6cncn6)(c6ccc(Cl)cc6Cl)O5)cc4)CC3)cc2)c1=O (stereo not drawn) [itraconazole],Inhibition of tumor Gli1 mRNA expression compared to vehicle-treated tumors,Gli1 mRNA [1],55%
same,Tumor growth inhibition compared to vehicle-treated tumors,[2],96%
same,IC50,[3],55 nM
same,Inhibition of PGP,P-glycoprotein (PGP),potent inhibitor
same,Inhibition of mutant activity,[4],~ 60%
same,IC50,Gli1 mRNA [5],~100 nM
same,IC50,SMO^WT,~600 nM
same,Inhibition of relative Hh pathway activity (8×-GLI-luciferase reporter),SMO^WT; SHHN stimulated Smo−/− MEFs expressing SMO^WT,full antagonist
same,Inhibition of SMO^E522K activity,murine SMO^E522K,almost completely inhibited
